In brackets after ≈: the same amount, converted by molar mass. Like-named read-outs stand apart in the source and are kept apart here.
Legend:
Type in all cases: cell-based, human
DU145 = experiment: SRB cytotoxicity assay, prostate DU145; settings: for IC50: Homo sapiens, read-out: Activity status in terms of IC50 values, Prostate DU145
Protocol: (§1) Single cell suspension of the tumor cells grown in tissue culture were made, cells counted and cell count adjusted to 1×10 ^5 to 5×10^5 cells/ml. Ninety six (96) well plates were seeded with this cell suspension, each well receiving 100 μl of it. The plate was then be incubated at 37° C. temperature in CO2 incubator for 24 hours. Drugs were added at appropriate concentrations after 24-hour incubation followed by further incubation for 48 hours. Experiment was terminated by gently layering the cells in the wells with 30% TCA and plates were kept in refrigerator for 1 hour following which they were washed thoroughly with tap water, dried attained with 0.4% SRB in 1% acetic aid and finally, the bound SRB eluted with 10 mM tris. Absorbance was read at 540 nm, in the microtitre-plate reader. Optical density of drug-treated cells was compared with that of control cells and cell inhibition was calculated as percent values. Each compound was tested at 10, 20, 40 and 80 μg/ml in triplicate on human malignant cell lines.

PC3 = experiment: SRB cytotoxicity assay, prostate PC3; settings: for IC50: Homo sapiens, read-out: Activity status in terms of IC50 values, Prostate PC3
Protocol: as §1

MCF7 = experiment: SRB cytotoxicity assay, breast MCF7; settings: for IC50: Homo sapiens, read-out: Activity status in terms of IC50 values, Breast MCF7
Protocol: as §1

SiHa = experiment: SRB cytotoxicity assay, cervix SiHa; settings: for IC50: Homo sapiens, read-out: Activity status in terms of IC50 values, Cervix SiHa
Protocol: as §1

HT1080 = experiment: SRB cytotoxicity assay, oral HT1080; settings: for IC50: Homo sapiens, read-out: Activity status in terms of IC50 values, Oral HT1080
Protocol: as §1

Zr-75-1 = experiment: SRB cytotoxicity assay, breast Zr-75-1; settings: for IC50: Homo sapiens, read-out: Activity status in terms of IC50 values, Breast Zr-75-1
Protocol: as §1

Hop62 = experiment: SRB cytotoxicity assay, lung Hop62; settings: for IC50: Homo sapiens, read-out: Activity status in terms of IC50 values, Lung Hop62
Protocol: as §1

Colo205 = experiment: SRB cytotoxicity assay, colon Colo205; settings: for IC50: Homo sapiens, read-out: Activity status in terms of IC50 values, Colon Colo205
Protocol: as §1

DWD = experiment: SRB cytotoxicity assay, oral DWD; settings: for IC50: Homo sapiens, read-out: Activity status in terms of IC50 values, Oral DWD
Protocol: as §1

[1] = MCF7 breast cancer cells, SRB assay, 48 hours drug incubation
[2] = SiHa cervix cancer cells, SRB assay, 48 hours drug incubation
[3] = Zr-75-1 breast cancer cells, SRB assay, 48 hours drug incubation
[4] = DWD oral cancer cells, SRB assay, 48 hours drug incubation
[5] = DU145 prostate cancer cells, SRB assay, 48 hours drug incubation
[6] = PC3 prostate cancer cells, SRB assay, 48 hours drug incubation
[7] = HT1080 oral cancer cells, SRB assay, 48 hours drug incubation
[8] = Hop62 lung cancer cells, SRB assay, 48 hours drug incubation
[9] = Colo205 colon cancer cells, SRB assay, 48 hours drug incubation

SMILES	Activity status in terms of IC50 values, Prostate DU145 (DU145; [5]) [µg/mL]	Activity status in terms of IC50 values, Prostate PC3 (PC3; [6]) [µg/mL]	Activity status in terms of IC50 values, Breast MCF7 (MCF7; [1]) [µg/mL]	Activity status in terms of IC50 values, Cervix SiHa (SiHa; [2]) [µg/mL]	Activity status in terms of IC50 values, Oral HT1080 (HT1080; [7]) [µg/mL]	Activity status in terms of IC50 values, Breast Zr-75-1 (Zr-75-1; [3]) [µg/mL]	Activity status in terms of IC50 values, Lung Hop62 (Hop62; [8]) [µg/mL]	Activity status in terms of IC50 values, Colon Colo205 (Colo205; [9]) [µg/mL]	Activity status in terms of IC50 values, Oral DWD (DWD; [4]) [µg/mL]	other results
COc1cccc2c1C(=O)c1c(O)c3c(c(O)c1C2=O)C[C@@](O)(C(=O)CO)C[C@@H]3O[C@H]1C[C@H](N)[C@H](O)[C@H](C)O1 [ADR, Adriamycin, reference compound]	–	–	–	–	–	–	–	–	–	IC50 (DU145; DU-145, DU145 prostate cancer cells, SRB assay, 48 hours drug incubation): 6 µg/mL (≈ 11 µM); IC50 (PC3; PC-3, PC3 prostate cancer cells, SRB assay, 48 hours drug incubation): 5 µg/mL (≈ 9.2 µM); IC50 (MCF7; [1]): 5 µg/mL (≈ 9.2 µM); IC50 (SiHa; [2]): 5 µg/mL (≈ 9.2 µM); IC50 (HT1080; HT-1080, HT1080 oral cancer cells, SRB assay, 48 hours drug incubation): 4 µg/mL (≈ 7.36 µM); IC50 (Zr-75-1; [3]): 5 µg/mL (≈ 9.2 µM); IC50 (Hop62; HOP-62, Hop62 lung cancer cells, SRB assay, 48 hours drug incubation): 5 µg/mL (≈ 9.2 µM); IC50 (Colo205; COLO 205, Colo205 colon cancer cells, SRB assay, 48 hours drug incubation): 5 µg/mL (≈ 9.2 µM); IC50 (DWD; [4]): 2 µg/mL (≈ 3.68 µM)
COc1cc([C@@H]2c3cc4c(cc3[C@H](O)[C@H]3COC(=O)[C@H]23)OCO4)cc(OC)c1OC [Compound 1, Podophyllotoxin, reference compound]	–	–	–	–	–	–	–	–	–	IC50 (DU145; DU-145, 48 h): 2 µg/mL (≈ 4.83 µM); IC50 (PC3; PC-3, 48 h): 8 µg/mL (≈ 19.3 µM); IC50 (MCF7; MCF7, 48 h): 3 µg/mL (≈ 7.24 µM); IC50 (SiHa; SiHa, 48 h): 23 µg/mL (≈ 55.5 µM); IC50 (HT1080; HT-1080, 48 h): 8 µg/mL (≈ 19.3 µM); IC50 (Zr-75-1; ZR-75-1, 48 h): 7 µg/mL (≈ 16.9 µM); IC50 (Hop62; HOP-62, 48 h): 13 µg/mL (≈ 31.4 µM); IC50 (Colo205; COLO 205, 48 h): 5 µg/mL (≈ 12.1 µM); IC50 (DWD; DWD, 48 h): 6 µg/mL (≈ 14.5 µM)
COc1cc(C2c3cc4c(cc3C(Nc3ccc(-c5nc6ccccc6s5)cc3)C3COC(=O)C23)OCO4)cc(OC)c1OC (stereo not drawn) [Compound 4a, 4β-[4″-(1″,3″-benzothiazole-2″-yl)anilino]-4-desoxypodophyllotoxin]	>80	>80	>80	>80	8	>80	>80	8	22	–
COc1cc(C2c3cc4c(cc3C(Nc3ccc(-c5nc6ccccc6s5)cc3)C3COC(=O)C23)OCO4)cc(OC)c1O (stereo not drawn) [Compound 4b, 4′-O-Demethyl-4β-[4″-(1″,3″-benzothiazole-2″-yl)anilino]-4-desoxypodophyllotoxin]	13	>80	>80	>80	>80	>80	8	8	6	–
COc1cc(C2c3cc4c(cc3C(Nc3ccc(-c5nc6ccccc6s5)c(Cl)c3)C3COC(=O)C23)OCO4)cc(OC)c1OC (stereo not drawn) [Compound 4c, 4β-[4″-(1″,3″-Benzothiazole-2″-yl)-3″-chloroanilino]-4-desoxypodophyllotoxin]	>80	>80	>80	>80	9	>80	15	7	5	–
COc1cc(C2c3cc4c(cc3C(Nc3ccc(-c5nc6ccccc6s5)c(Cl)c3)C3COC(=O)C23)OCO4)cc(OC)c1O (stereo not drawn) [Compound 4d, 4′-O-Demethyl-4β-[4″-(1″,3″-benzothiazole-2″-yl)-3″-chloroanilino]-4-desoxypodophyllotoxin]	>80	>80	>80	>80	9	>80	60	7	7	–
COc1cc(C2c3cc4c(cc3C(Nc3ccc(-c5nc6ccc(F)cc6s5)cc3)C3COC(=O)C23)OCO4)cc(OC)c1OC (stereo not drawn) [Compound 4g, 4β-[4″-(6″-Fluoro-1″,3″-benzothiazole-2″-yl)anilino]-4-desoxypodophyllotoxin]	>80	>80	>80	>80	9	>80	30	7	5	–
COc1cc(C2c3cc4c(cc3C(Nc3ccc(-c5nc6ccc(F)cc6s5)cc3)C3COC(=O)C23)OCO4)cc(OC)c1O (stereo not drawn) [Compound 4h, 4′-O-Demethyl-4β-[4″-(6″-fluoro-1″,3″-benzothiazole-2″-yl)anilino]-4-desoxypodophyllotoxin]	>80	>80	>80	>80	>80	>80	10	8	9	–

Source: patent US20080275248A1, “NOVEL 4BETA-AMINO PODOP[…] AS POTENTIAL ANTICANCER AGENTS AND A PROCESS FOR THE PREPARATION THEREOF” (priority 2007, published 2008)
